{"source": "patent US6355453B1", "about": "“Method for making fluorinated sugars having a side chain and use thereof” (Forschungszentrum Julich GmbH, priority 1998, dated 2002)", "key": {"O=C(O)C(=O)CF": {"system": "O=C(O)C(=O)CF", "experiment": "purified protein, by the assay type", "conditions": "other: ManNAc/F-pyr reaction, 24 U*/ml aldolase, pH 7.5, 25° C."}, "[1]": {"biological_target": "T1, N-acetylneuraminic acid aldolase (Escherichia coli, UniProt P0A6L4)", "conditions": "value given in the literature; read-out: Km value for the standard ManNAc/Pyr reaction; cited from earlier work"}, "[2]": {"biological_target": "T1, N-acetylneuraminic acid aldolase", "experiment": "Kinetic study of the aldolase-catalysed ManNAc/F-pyr reaction (Equation 1, non-linear regression of initial-rate data)"}}, "data": [{"compound": "N-acetylneuraminic acid aldolase (Escherichia coli K-12)", "values": [{"measurement": "Km", "setting": "O=C(O)C(=O)CF", "value": 41, "unit": "mM"}]}, {"compound": "CC(=O)C(=O)O", "note": "[Pyr, pyruvic acid]", "values": [{"measurement": "Km", "setting": "[1]", "value": 8.5, "unit": "mM"}]}, {"compound": "O=C(O)C(=O)CF", "note": "[F-Pyr, 1-fluoro-2-oxopropanoic acid]", "values": [{"measurement": "Ki", "setting": "[2]", "value": 49, "unit": "mM"}, {"measurement": "maximal activity of the reaction", "setting": "[2]; enzyme charge of >24 U*/mg", "value": 0.9, "unit": "U/mg"}]}]}
